Where no end group is shown, it is not given here.
Legend:
[1] = tested on: CD8+ T cells of healthy HLA-A*02+ donors; assay: In vitro priming of CD8+ T cells with pMHC/anti-CD28 coated beads (high density), tetramer analysis; format: cell-based, human; details: high density beads, three stimulations, specific tetramer+ CD8+
Method: To perform in vitro stimulations by artificial antigen presenting cells (aAPC) loaded with peptide-MHC complex (pMHC) and anti-CD28 antibody, PBMCs (peripheral blood mononuclear cells) from fresh HLA-A*02+ buffy coats were isolated by using standard density gradient separation medium (PAA, Cölbe, Germany). Buffy coats were either obtained from the Blood Bank Tübingen or from the Katharinenhospital Stuttgart. Isolated PBMCs were incubated overnight in T-cell medium (TCM) for human in vitro priming consisting of RPMI-Glutamax (Invitrogen, Karlsruhe, Germany) supplemented with 10% heat inactivated human AB serum (PAA, Cölbe, Germany), 100 U/ml Penicillin/100 μg/ml Streptomycin (Cambrex, Verviers, Belgium), 1 mM sodium pyruvate (CC Pro, Neustadt, Germany) and 20 μg/ml Gentamycin (Cambrex). CD8+ lymphocytes were isolated using the CD8+ MACS positive selection kit (Miltenyi, Bergisch Gladbach, Germany) according to the manufacturer's instructions. Obtained CD8+ T-cells were incubated until use in TCM supplemented with 2.5 ng/ml IL-7 (PromoCell, Heidelberg, Germany) and 10 U/ml IL-2 (Chiron, Munich, Germany). Generation of pMHC/anti-CD28 coated beads, T-cell stimulations and readout was performed as described before (Walter, S, et al., 2003, J. Immunol., 171, 4974-4978) with minor modifications. Briefly, biotinylated recombinant HLA-A*0201 molecules lacking the transmembrane domain and biotinylated at the carboxy terminus of the heavy chain were produced following a method described by (Altman, J D, et al., 1996, Science, 274, 94-96). The purified costimulatory mouse IgG2a anti human CD28 Ab 9.3 (Jung, G, et al., 1987, Proc Natl Acad Sci USA, 84, 4611-4615) was chemically biotinylated using Sulfo-N-hydroxysuccinimidobiotin as recommended by the manufacturer (Perbio, Bonn, Germany).
800,000 beads/200 μl were coated in 96-well plates in the presence of 600 ng biotin anti-CD28 plus 200 ng relevant biotin-pMHC (high density beads) or 2 ng relevant plus 200 ng irrelevant (pMHC library) MHC (low density beads). Stimulations were initiated in 96-well plates by conincubating 1×10^6 CD8+ T cells with 2×10^5 washed coated beads in 200 μl TCM supplemented with 5 ng/ml IL-12 (PromoCell) for 3-4 days at 37° C. Half of the medium was then exchanged by fresh TCM supplemented with 80 U/ml IL-2 and incubating was continued for 3-4 days at 37° C. This stimulation cycle was performed for a total of three times. Finally, tetrameric analyses were performed with fluorescent MHC tetramers (produced as described by (Altman, J D, et al., 1996, Science, 274, 94-96)) plus antibody CD8-FITC clone SK1 (B D, Heidelberg, Germany) on a four-color FACSCalibur (BD). Peptide specific cells were calculated as percentage of total CD8+ T cells. Evaluation of tetrameric analysis was done using the software FCS Express (De Novo Software). In vitro priming of specific tetramer+ CD8+ lymphocytes was detected by appropriate gating and by comparing to negative control stimulations.
As different human serum lots may highly affect the immunogenicity results, only assays in which one and the same serum lot was used, were evaluated together.
The lot of human serum used for all experiments was C02104-0167.

[2] = Analytical HPLC characterization of the reconstituted suspension; format: physicochemical; details: for Amount of peptide found in the particles: reconstituted IMA910 suspension
Method: Furthermore, analytical HPLC was performed for a closer characterization of the obtained suspension.

Sequence | Positive donors/donors tested [1] | Positive donors/donors tested (%) [1] | Positive wells/wells tested [1] | Positive wells/wells tested (%) [1] | Solubility in the solution used for reconstitution of IMA910 ([2]; sodium hydrogen carbonate (4.2%)) | Amount of peptide found in the particles [2]
ALSNLEVTL (homo sapiens) [Peptide C20-001] | 1/5 | (20%) | 1/60 | (2%) |  | 
ILAPVILYI [NOX-001] |  |  |  |  | almost insoluble | 
KIFDEILVNA (homo sapiens) [TOP-001] | 2/5 | (40%) | 7/72 | (10%) |  | low amounts
KLMDLDVEQL (homo sapiens) [PCN-001] | 3/4 | (75%) | 4/42 | (10%) |  | 
LLGATCMFV (homo sapiens) [CCN-001] | 5/5 | (100%) | 42/54 | (78%) |  | low amounts
SPQYSWRINGIPQQHT (homo sapiens) [CEA-006] |  |  |  |  |  | low amounts
YVDPVITSI (homo sapiens) [MET-001] | 4/6 | (67%) | 30/72 | (42%) |  | 
